Measured values: patent US5705504A, “Piperidine derivatives with PAF antagonist activity” (J. Uriach & Cia, S.A., priority 1994, dated 1998)

Experiments:
[1] = tested on: Platelet Aggregation Induced by PAF (platelet rich plasma); experiment: Inhibition of Platelet Aggregation Induced by PAF; assay type: cell-based, male New Zealand rabbits; details: rabbit platelet rich plasma, aggregation induced by C18-PAF (15 nM)
Method: Inhibition of Platelet Aggregation Induced by PAF.
Platelet rich plasma (PRP) was prepared by centrifuging the blood at 250 xg for 10 min. at 4° C. The PRP was diluted with platelet-poor plasma (PPP) obtained by further centrifuging at 3000 xg for 10 min. The platelet count was adjusted to 3×10^5cells/mm^3.

PAF-induced Hypotension = experiment: Inhibition of PAF-induced Hypotension in Normotensive Rats; assay type: in vivo, male Sprague-Dawley rats; details: anesthetized normotensive rats, i.v. 3 min. before PAF (0.5 μg/Kg), dose inhibiting hypotension by 50%; for ED50: Rattus norvegicus, iv, 0.05 h, read-out: ID50 (the source's name)
Method: Inhibition of PAF-induced Hypotension in Normotensive Rats.
Male Sprague-Dawley rats, weighing 180-220 g, were anesthetized with sodium pentobarbital (50 mg/Kg i.p.). Blood pressure was recorded from the left carotid artery using a Statham pressure transducer coupled to a Beckman R611 recorder. Right and left fernoral veins were catheterized to inject test compounds and PAF (0.5 μg/Kg). Test compounds were administered by intravenous injection (1 mL/Kg, dissolved in saline) 3 min. before PAF. Blood pressure was monitored and percent inhibition of PAF-induced hypotension with respect to controls was calculated.

| Structure (SMILES) | IC50 ([1]; Oryctolagus cuniculus) | ED50 (PAF-induced Hypotension) | IC50 [1] | ID50 (PAF-induced Hypotension) |
| --- | --- | --- | --- | --- |
| Cc1nc2cnccc2n1CC1CCN(C(=O)/C=C(/c2ccccc2)c2ccc(N)cc2)CC1 [Compound 17a, cis-1-[[1-[3-(4-Aminophenyl)-3-phenylpropenoyl]-4-piperidyl]methyl]-1H-2-methylimidazo[4,5-c]pyridine] | – | – | 18 nM | 0.029 mg/kg |
| Cc1nc2cnccc2n1CC1CCN(C(=O)/C=C(\c2ccccc2)c2ccc(N)cc2)CC1 [Compound 17b, trans-1-[[1-[3-(4-Aminophenyl)-3-phenylpropenoyl]-4-piperidyl]methyl]-1H-2-methylimidazo[4,5-c]pyridine] | – | – | 5 nM | 0.01 to 0.025 mg/kg |
| Cc1nc2cnccc2n1CC1CCN(C(=O)CC(C)c2ccc(N)cc2)CC1 (stereo not drawn) [Compound 23, 1-[[1-[3-(4-Aminophenyl)butanoyl]-4-piperidyl]methyl]-1H-2-methylimidazo[4,5-c]pyridine] | 11 nM | – | – | – |
| Cc1nc2cnccc2n1CC1CCN(C(=O)C=C(c2ccccc2)c2cccc(N)c2)CC1 [Compound 30, cis and trans-1-[[1-[3-(3-Aminophenyl)-3-phenylpropenoyl]-4-piperidyl]methyl]-1H-2-methylimidazo[4,5-c]pyridine] | – | 0.015 mg/kg | – | – |
| CCOC(=O)[C@@H](NC(=O)N1CCC(Cn2c(C)nc3cnccc32)CC1)c1ccccc1 [Compound 39, (S)-1-[[1-[[N-(1-Ethoxycarbonyl-1-phenylmethyl)amino]carbonyl]-4-piperidyl]methyl]-1H-2-methylimidazo[4,5-c]pyridine] | 16 nM | – | – | – |
| Cc1nc2cnccc2n1CC1CCN(C(=O)CC(C)c2ccccc2)CC1 (stereo not drawn) [Compound 40, 1-[[1-(3-Phenylbutanoyl)-4-piperidyl]methyl]-1H-2-methylimidazo[4,5-c]pyridine] | 12 nM | 0.033 mg/kg | – | – |
| Cc1nc2cnccc2n1CC1CCN(C(=O)CC(C)(C)c2ccc(N)cc2)CC1 [Compound 44, 1-[[1-[3-(4-Aminophenyl)-3-methylbutanoyl]-4-piperidyl]methyl]-1H-2-methylimidazo[4,5-c]pyridine] | 19 nM | – | – | – |
| Cc1nc2cnccc2n1CC1CCN(C(=O)N[C@H](C)c2ccccc2)CC1 [Compound 50, (R)-1-[[1-[(1-Phenylethylamino)carbonyl]-4-piperidyl]methyl]-1H-2-methylimidazo[4,5-c]pyridine] | 13 nM | 0.017 mg/kg | – | – |
| Cc1nc2cnccc2n1CC1CCN(C(=O)NC2(c3ccccc3)CC2)CC1 [Compound 59, 1-[[1-[(1-Phenyl-1-cyclopropylamino)carbonyl]-4-piperidyl]methyl]-1H-2-methylimidazo[4,5-c]pyridine] | 17 nM | 0.021 mg/kg | – | – |

The remaining molecules from weak to strong by IC50 ([1]; Oryctolagus cuniculus), led by results:

| IC50 ([1]; Oryctolagus cuniculus) | Structure (SMILES) | ED50 (PAF-induced Hypotension) | IC50 [1] | ID50 (PAF-induced Hypotension) |
| --- | --- | --- | --- | --- |
| 36 nM | Cc1nc2cnccc2n1CC1CCN(C(=O)CC(O)(c2ccccc2)C(F)(F)F)CC1 (stereo not drawn) [Compound 47] | 0.013 mg/kg | – | – |
| 34 nM | Cc1nc2cnccc2n1CC1CCN(C(=O)OCC2(c3ccccc3)CC2)CC1 [Compound 70, 1-[[1-[[(1-Phenyl-1-cyclopropyl)methoxy]carbonyl]-4-piperidyl]methyl]-1H-2-methylimidazo[4,5-c]pyridine] | 0.014 mg/kg | – | – |
| 17 nM | CCOC[C@@H](NC(=O)N1CCC(Cn2c(C)nc3cnccc32)CC1)c1ccccc1 [Compound 60, (S)-1-[[1-[(2-Ethoxy-1-phenylethylamino)carbonyl]-4opiperidyl]methyl]-1H-2-methylimidazo[4,5-c]pyridine] | 0.019 mg/kg | – | – |
| 11 nM | CCCC(CC(=O)N1CCC(Cn2c(C)nc3cnccc32)CC1)c1ccccc1 (stereo not drawn) [Compound 32, 1-[[1-(3-Phenylhexanoyl)-4-piperidyl]methyl]-1H-2-methylimidazo[4,5-c]pyridine] | 0.0079 mg/kg | – | – |
| 9.2 nM | Cc1nc2cnccc2n1CC1CCN(C(=O)C=C(c2ccccc2)c2ccc([N+](=O)[O-])cc2)CC1 [Compound 16, cis and trans-1-[[1-[3-(4-Nitrophenyl)-3-phenylpropenoyl]-4-piperidyl]methyl]-1H-2-methylimidazo[4,5-c]pyridine] | – | – | – |
| 7.6 nM | Cc1nc2cnccc2n1CC1CCN(C(=O)CC(c2ccccc2)c2ccccc2)CC1 [Compound 1, 1-[[1-(3,3-Diphenylpropionyl)-4-piperidyl]methyl]-1H-2-methylimidazo[4,5-c]pyridine] | 0.0086 mg/kg | – | – |
| 6.9 nM | Cc1nc2cnccc2n1CC1CCN(C(=O)CC(C)(O)c2ccccc2)CC1 (stereo not drawn) [Compound 21, 1-[[1-(3-Hydroxy-3-phenylbutanoyl)-4-piperidyl]methyl]-1H-2-methylimidazo[4,5-c]pyridine] | 0.043 mg/kg | – | – |
| 6.7 nM | Cc1nc2cnccc2n1CC1CCN(C(=O)CC(C)(C)c2ccccc2)CC1 [Compound 41, 1-[[1-(3-Methyl-3-phenylbutanoyl)-4-piperidyl]methyl]-1H-2-methylimidazo[4,5-c]pyridine] | 0.012 mg/kg | – | – |
| 6.2 nM | Cc1nc2cnccc2n1CC1CCN(S(=O)(=O)CC(C)(C)c2ccccc2)CC1 [Compound 61, 1-[[1-[(2-Methyl-2-phenylpropyl)sulfonyl]-4-piperidyl]methyl]-1H-2-methylimidazo[4,5-c]pyridine] | – | – | – |
